Patent US11292759B2, “Hydroxycitric acid metal heterocyclic compounds with covalent characteristics” (GLYKON TECHNOLOGIES GROUP, LLC, priority 2018, dated 2022)
One block for each compound: values may come before it.

Key:
[1] = Conductivity of solutions (HACH Conductivity/TDS meter); assay type: physicochemical; conditions: Concentration 0.3 mmol/l in demineralized water, no additive
Excerpt: The structure of the subject compounds (e.g., as described herein) can be deduced using a conductance meter to observe the extent of dissociate of the first and/or second metals from the compounds. In an experiment described below equimolar samples and comparative electrolyte conductance to K-acetate solution as a standard, data may be obtained which is characteristic of electrolyte binary conductants. […] The KMgHCA solution in water may have a pH 8-10 depending on the concentration. Under this condition, the heterocyclic anion formed will tend toward a stable form rather than an ionizable one.
Several experiments investigating the electrical conductivities of solutions of KMgHCA, KZnHCA and KMnHCA are performed. The equipment used is HACH Conductivity/TDS meter, P/N=4460-00.
Materials: KMgHCA.4H2O, KZnHCA.2H2O, KMnHCA.2H2O are prepared using methods described herein. KC2H3O2 and […] was obtained from Merck. H2O used was demineralized water.
General procedure: All the HCA compounds and Acetate were weighed and placed in a volumetric flask and dissolved with demineralized water to one liter solution and then they were tested the conductivity (EC).

[2] = molecular target: T1, ATP citrate lyase (EC 4.1.3.8) (Homo sapiens, UniProt P53396); conditions: cited from earlier work
T1 sequence (P53396 1-1101): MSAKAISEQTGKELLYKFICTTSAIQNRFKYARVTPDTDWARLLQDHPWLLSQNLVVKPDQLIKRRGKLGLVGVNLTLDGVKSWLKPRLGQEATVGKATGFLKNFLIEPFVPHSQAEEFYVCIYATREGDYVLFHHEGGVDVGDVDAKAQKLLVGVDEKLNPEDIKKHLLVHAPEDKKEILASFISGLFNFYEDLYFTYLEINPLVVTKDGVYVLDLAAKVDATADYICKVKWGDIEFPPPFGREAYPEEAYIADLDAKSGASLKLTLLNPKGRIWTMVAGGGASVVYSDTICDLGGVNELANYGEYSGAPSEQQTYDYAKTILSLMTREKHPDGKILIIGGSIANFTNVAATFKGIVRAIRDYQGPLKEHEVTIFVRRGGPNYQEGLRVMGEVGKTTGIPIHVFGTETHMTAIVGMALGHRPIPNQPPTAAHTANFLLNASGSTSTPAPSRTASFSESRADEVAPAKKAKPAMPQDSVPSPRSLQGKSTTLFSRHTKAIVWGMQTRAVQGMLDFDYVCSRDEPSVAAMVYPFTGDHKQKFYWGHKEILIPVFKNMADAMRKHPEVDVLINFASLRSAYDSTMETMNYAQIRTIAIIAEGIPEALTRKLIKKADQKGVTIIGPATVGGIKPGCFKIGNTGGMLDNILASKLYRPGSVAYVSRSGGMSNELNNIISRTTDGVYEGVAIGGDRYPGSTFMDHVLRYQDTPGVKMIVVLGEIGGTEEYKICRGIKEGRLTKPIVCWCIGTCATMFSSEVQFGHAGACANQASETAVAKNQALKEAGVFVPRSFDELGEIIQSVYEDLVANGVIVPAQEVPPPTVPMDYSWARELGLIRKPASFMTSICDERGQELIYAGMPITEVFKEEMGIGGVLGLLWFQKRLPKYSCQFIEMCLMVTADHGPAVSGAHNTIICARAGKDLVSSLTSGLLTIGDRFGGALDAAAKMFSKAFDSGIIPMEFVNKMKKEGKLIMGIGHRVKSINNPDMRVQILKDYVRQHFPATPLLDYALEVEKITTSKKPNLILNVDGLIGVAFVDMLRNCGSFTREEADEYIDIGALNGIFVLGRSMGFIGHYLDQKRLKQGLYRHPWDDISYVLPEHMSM

[3] = cited from earlier work
Osteoporosis = experiment: Example 14: comparison of KCaHCA and/or KMgHCA compositions in one subject; assay type: in vivo, human; conditions: 200 mg doses, after switch from experiment 1 regimen
Description: • Subject: (cited as Example 12, above) • • Problem: Osteoporosis • Treatment: Materials were consumed 3 times a day after meals. • Experiment 1. Blending 150 mg KMgHCA.8H2O+50 mg KCaHCA.3H2O • A 200 mg mixture of KCaHCA (25%) and KMgHCA (75%) prepared according to the subject methods was used. The actual percentage of calcium was (40/338)×25%=2.96%. Since KCaHCA.3H2O was used the percentage of magnesium in the composition was (24/412)×75%=4.37%. Since KMgHCA.8H2O was used, the ratio Ca:Mg=0.15:0.36 in mmol. • Experiment 2. 200 mg KMgHCA.8H2O • Experiment 3.

[4] = test system: osteoporosis and calcification; experiment: Example 13: comparison of bimetal regimes in two subjects; assay type: in vivo, human; design: key to Treatment performance: ++: very good performance; +−: good but slight complaint
Description: Subject I: a person, 40 kg (cited in Example 11, above)
Subject II: a person; 72 kg
Treatment: A. Mixture 25% KCa HCA+75% KMg HCA bimetals (100-200 mg)
Treatment B: Only KMg HCA but not KCa HCA was used.

[5] = test system: de novo lipogenesis (DNL); conditions: obese subjects, 6 g HCA/day for 5 days; cited from earlier work
[6] = test system: de novo lipogenesis (DNL); experiment: De novo lipogenesis in rats (literature); assay type: in vivo; conditions: for a 70 kg human being
Excerpt: Dosages of various HCA compositions found to be effective are quite large, indeed beyond the normal range for pharmaceutical products, with efficacy that is highly variable. […] A later study found a significant, yet limited effect after 7 days of a diet designed specifically to induce de novo lipogenesis in humans. (Physiol Behav. 2006 Jul. 30; 88(4-5): 371-81). See also, Nutr Metab (Lond). 2005 Sep. 13; 2:23.

E. C (μS/cm) [1]: 56.06 μS/cm
Structure (SMILES): CC(=O)[O-].[K+] [KC2H3O2, K-acetate]

E. C (μS/cm) [1]: 32.3 μS/cm
Structure (SMILES): CC(=O)[O-].CC(=O)[O-].O.O.O.O.[Mg+2] [Mg(CH3COO)2•4H2O]

Structure (SMILES): O=C(O)CC(O)(C(=O)O)C(O)C(=O)O (single isomer, unassigned; (-)) [(−)-HCA, (−)-hydroxycitric acid]
inhibition of ATP citrate lyase [2]: potent inhibitor

Structure (SMILES): O=C(O)CO [glycolic acid]
pKa [3]: approx. 3.83

Structure (SMILES): O=C([O-])CC(O)(C(=O)[O-])C(O)C(=O)[O-].[K+].[Mg+2] (stereo not drawn) [KMgHCA]
patient's condition observed during treatment (Osteoporosis): slight difficult to walk
Treatment performance ([4]; Patient II (72 kg)): +−
reduction of symptoms ([4]; Subject II): partial reduction of symptoms

Structure (SMILES): O=C(O)CC(O)(C(=O)O)C(O)C(=O)O (stereo not drawn) [HCA, Hydroxycitric acid]
inhibition of DNL / promotion of fatty acid oxidation [5]: failed to inhibit DNL or to promote fatty acid oxidation
effective dose extrapolated from rats [6]: approximately 4.5 g/day
